Measurements as given in publication PMC11747586, “Synthesis and Investigation of Peptide–Drug Conjugates Comprising Camptothecin and a Human Protein‐Derived Cell‐Penetrating Peptide” (Chemical Biology & Drug Design, 2025).
Positions of bridges follow the written chain, without caps; N, C: chain ends. Residues, ends and D or L forms follow the SMILES beside them.

How the values were obtained:
HT144 cells = experiment: Compound internalization/association with HT144 cells (TOF-MS of cell extracts); assay type: cell-based; conditions: 4 μM, 1 h
Procedure: FIGURE 4 (A) Membrane permeability and cellular uptake of PDCs, scaffold peptides, and CPT. Compounds were added to PAMPA wells (4 μM) and incubated for 4 h. Supernatant from apical and basolateral sides of the membrane were collected and analyzed using LC–MS. The amount in the combined soluble fractions was compared to the starting amount to determine % recovery, and the apparent permeability (Papp) was calculated as before (Sevin et al. [2013]). Data is expressed as mean ± SD from a single experiment with three technical replicates. (B) Internalization/cell membrane association of PDCs 12–14 and PDIP with HT144 cells. […] The relative amount of internalized peptide or PDC was determined by integrating area under the curve (AUC) for the [M + 6H]^6+ m/z peak (for the intact mass) using time of flight–mass spectrometry (see Figure S2). […] Data is expressed as mean ± SD from a single experiment with three technical replicates for each treatment and control and was analyzed with ANOVA (Tukey multiple comparisons; **p < 0.01, *p < 0.05). […] Data is expressed as mean ± SD from a single experiment with three technical replicates for each treatment and was analyzed with ANOVA (Fisher multiple paired comparisons; **p < 0.01, *p < 0.05). […]
The area under the curve (AUC) for the [M+6H]6+ m/z peak for each compound was determined using Sciex […]

human RBCs = experiment: Red blood cell (RBC) lysis, released hemoglobin; conditions: red cells of human, 72 h
Procedure: Cell death was measured using resazurin, with 0.1% (v/v) Triton X‐100 as a control for 100% cell death. Data points are expressed as mean ± SD for at least two biological replicates. Dose response curves were fitted using [inhibitor] versus response with variable slope, Graphpad Prism v10. […] RBC lysis was determined by measuring released hemoglobin, with 0.1% (v/v) Triton X‐100 as a control for 100% cell lysis. Melittin was included as a membranolytic control. Data points are expressed as mean ± SD for two technical replicates. Dose response curves were fitted using [inhibitor] versus response with variable slope, Graphpad Prism v10. […] CC50 values are expressed as mean (SEM). […]
Red blood cell (RBC) lysis
Human RBCs and serum were obtained from healthy volunteers via the Red Cross Lifeblood,
Brisbane, Australia. RBCs were washed three times with PBS and stored in culture medium (RPMI

cells = experiment: cells
Procedure: Cell death was measured using resazurin, with 0.1% (v/v) Triton X‐100 as a control for 100% cell death. Data points are expressed as mean ± SD for at least two biological replicates. Dose response curves were fitted using [inhibitor] versus response with variable slope, Graphpad Prism v10. […] RBC lysis was determined by measuring released hemoglobin, with 0.1% (v/v) Triton X‐100 as a control for 100% cell lysis. Melittin was included as a membranolytic control. Data points are expressed as mean ± SD for two technical replicates. Dose response curves were fitted using [inhibitor] versus response with variable slope, Graphpad Prism v10. […] CC50 values are expressed as mean (SEM).
Cell death was measured using resazurin, with 0.1% (v/v) Triton X-100 as a control for 100% cell death. Data points are expressed as mean ± SD for at least two biological replicates. CC50 values are expressed as mean (SEM). Note: CPT-dipeptide-PDIP was not included in this study. c[A]PDIP is a desulfurized variant of cPDIP 2 (see Table S1) to prevent the presence of free thiol during assays. […]
HaCaT cells were grown in DMEM medium and HT144 cells were grown in RPMI medium supplemented with 2 mM L-glutamine and 10 mM sodium pyruvate. Media were supplemented with 10% (v/v) fetal bovine serum, 100 units/mL of penicillin and […] of streptomycin. Flasks of cultured cells were maintained in a humidified incubator (37 °C, 5% CO2) and passaged every 2–3 days to maintain cultures between 20–90% confluence. Cell line identity was verified by comparing […]
STR profiles of the cell lines against database entries from the DSMZ-German collection of microorganisms and cell cultures, GmBH https://celldive.dsmz.de/str/browse.
Toxicity to the HT144 and HaCaT cell lines was tested following peptide treatment by measuring the metabolism of resazurin into fluorescent resorufin. The assays were performed with 5000 cells/well (96-well plate) in serum free media. Cells were incubated with serially diluted peptides, PDCs or […]

CC[C@H](C)[C@@H]1NC(=O)[C@H](CCCCN)NC(=O)[C@H](CCCCN)NC(=O)[C@H](Cc2ccc(O)cc2)NC(=O)[C@H](CC(C)C)NC(=O)[C@@H]2CCCN2C(=O)CNC(=O)CNC(=O)[C@@H](NC(=O)CN)CSSC[C@@H](C(=O)N[C@@H](CCC(=O)O)C(=O)N[C@@H](CO)C(N)=O)NC(=O)[C@H](CC(C)C)NC(=O)[C@H](CCCCN)NC(=O)[C@H](CCCCN)NC(=O)[C@H]([C@@H](C)CC)NC(=O)[C@H]([C@@H](C)CC)NC(=O)[C@H](CCCCN)NC(=O)[C@H](CCCCN)NC(=O)[C@H](Cc2ccc(O)cc2)NC(=O)[C@H](CC(C)C)NC(=O)[C@@H]2CCCN2C(=O)[C@H](C)NC(=O)CNC(=O)CNC(=O)[C@H](CO)NC(=O)CNC(=O)CNC(=O)[C@H](CO)NC(=O)[C@H](CCC(=O)O)NC(=O)[C@H](CC(C)C)NC(=O)[C@H](CC(C)C)NC(=O)[C@H](CCCCN)NC(=O)[C@H](CCCCN)NC(=O)[C@H]([C@@H](C)CC)NC1=O [PDIP, reference compound] (H-GCGGPLYKKIIKKLLESGGSGGAPLYKKIIKKLCES-NH2; disulfide 2-34; N-terminus assumed)
recovered intact conjugate/peptide (percentage of internalized compound) (HT144 cells): 9% | HC10 (minimal hemolytic concentration) RBC (human RBCs): ~ 32 μM | CC50 (cells): 4.83 µM
